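Five compound concentrations were applied to cells in 96-well plates for 48 hours; endpoints were derived by simple linear interpolation of the resulting dose-response curve. GI50 is the concentration that inhibits growth by half.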 Activity calls are given as the source filed them. Cut-off read from the data, not from the text of the source: active = GI50 up to about 1.1 µM and inactive = higher.
Tests used:
Test in all cases: NCI tumour cell line growth inhibition, 48 h
786-0 = tested on: 786-0
A549 = tested on: A549
CAKI-1 = tested on: CAKI-1
CCRF-CEM = tested on: CCRF-CEM
COLO 205 = tested on: COLO 205
DLD-1 = tested on: DLD-1
DMS-114 = tested on: DMS-114
DMS-273 = tested on: DMS-273
EKVX = tested on: EKVX
HCC 2998 = tested on: HCC 2998
HCT-116 = tested on: HCT-116
HCT-15 = tested on: HCT-15
HL-60 = tested on: HL-60
HOP-92 = tested on: HOP-92
HT-29 = tested on: HT-29
IGROV-1 = tested on: IGROV-1
K562 = tested on: K562
KM-20L2 = tested on: KM-20L2
KM12 = tested on: KM12
LOX IMVI = tested on: LOX IMVI
LXFL 529 = tested on: LXFL 529
M19-MEL = tested on: M19-MEL
MOLT-4 = tested on: MOLT-4
Malme-3M = tested on: Malme-3M
NCI-H226 = tested on: NCI-H226
NCI-H23 = tested on: NCI-H23
NCI-H460 = tested on: NCI-H460
NCI-H522 = tested on: NCI-H522
OVCAR-4 = tested on: OVCAR-4
OVCAR-5 = tested on: OVCAR-5
RPMI-8226 = tested on: RPMI-8226
RXF 393 = tested on: RXF 393
RXF 631 = tested on: RXF 631
SF-268 = tested on: SF-268
SF-295 = tested on: SF-295
SF-539 = tested on: SF-539
SK-MEL-28 = tested on: SK-MEL-28
SK-MEL-2 = tested on: SK-MEL-2
SK-MEL-5 = tested on: SK-MEL-5
SK-OV-3 = tested on: SK-OV-3
SN12C = tested on: SN12C
SNB-19 = tested on: SNB-19
SNB-75 = tested on: SNB-75
SR = tested on: SR
SW-620 = tested on: SW-620
TK-10 = tested on: TK-10
U-251 = tested on: U-251
UACC-257 = tested on: UACC-257
UACC-62 = tested on: UACC-62
UO-31 = tested on: UO-31
XF498 = tested on: XF498
ACHN = tested on: ACHN
HOP-18 = tested on: HOP-18
HOP-62 = tested on: HOP-62
OVCAR-3 = tested on: OVCAR-3
OVCAR-8 = tested on: OVCAR-8
SNB-78 = tested on: SNB-78

O=C(O)c1nccnc1C(=O)O
GI50 (786-0): > 100 µM (inactive)
GI50 (A549): > 100 µM (inactive)
GI50 (CAKI-1): > 100 µM (inactive)
GI50 (CCRF-CEM): > 100 µM (inactive)
GI50 (COLO 205): > 100 µM (inactive)
GI50 (DLD-1): > 100 µM (inactive)
GI50 (DMS-114): > 100 µM (inactive)
GI50 (DMS-273): > 100 µM (inactive)
GI50 (EKVX): > 100 µM (inactive)
GI50 (HCC 2998): > 100 µM (inactive)
GI50 (HCT-116): > 100 µM (inactive)
GI50 (HCT-15): > 100 µM
GI50 (HL-60): > 100 µM (inactive)
GI50 (HOP-92): > 100 µM (inactive)
GI50 (HT-29): > 100 µM (inactive)
GI50 (IGROV-1): > 100 µM (inactive)
GI50 (K562): > 100 µM (inactive)
GI50 (KM-20L2): > 100 µM (inactive)
GI50 (KM12): > 100 µM (inactive)
GI50 (LOX IMVI): > 100 µM (inactive)
GI50 (LXFL 529): > 100 µM (inactive)
GI50 (M19-MEL): > 100 µM (inactive)
GI50 (MOLT-4): > 100 µM (inactive)
GI50 (Malme-3M): > 100 µM (inactive)
GI50 (NCI-H226): > 100 µM (inactive)
GI50 (NCI-H23): > 100 µM (inactive)
GI50 (NCI-H460): > 100 µM (inactive)
GI50 (NCI-H522): > 100 µM (inactive)
GI50 (OVCAR-4): > 100 µM (inactive)
GI50 (OVCAR-5): > 100 µM (inactive)
GI50 (RPMI-8226): > 100 µM (inactive)
GI50 (RXF 393): > 100 µM (inactive)
GI50 (RXF 631): > 100 µM (inactive)
GI50 (SF-268): > 100 µM (inactive)
GI50 (SF-295): > 100 µM (inactive)
GI50 (SF-539): > 100 µM (inactive)
GI50 (SK-MEL-28): > 100 µM (inactive)
GI50 (SK-MEL-2): > 100 µM (inactive)
GI50 (SK-MEL-5): > 100 µM (inactive)
GI50 (SK-OV-3): > 100 µM (inactive)
GI50 (SN12C): > 100 µM (inactive)
GI50 (SNB-19): > 100 µM (inactive)
GI50 (SNB-75): > 100 µM (inactive)
GI50 (SR): > 100 µM (inactive)
GI50 (SW-620): > 100 µM (inactive)
GI50 (TK-10): > 100 µM (inactive)
GI50 (U-251): > 100 µM (inactive)
GI50 (UACC-257): > 100 µM (inactive)
GI50 (UACC-62): > 100 µM (inactive)
GI50 (UO-31): > 100 µM (inactive)
GI50 (XF498): > 100 µM (inactive)

Clc1ccc(CNc2nc3ccccc3nc2-c2cccs2)c(Cl)c1
GI50 (786-0): > 100 µM (inactive)
GI50 (A549): 97.3 µM (inactive)
GI50 (ACHN): 75.2 µM (inactive)
GI50 (CCRF-CEM): 98.9 µM (inactive)
GI50 (COLO 205): 50 µM (inactive)
GI50 (DMS-273): 86.7 µM (inactive)
GI50 (EKVX): > 100 µM (inactive)
GI50 (HCC 2998): 43.5 µM (inactive)
GI50 (HCT-116): 49 µM (inactive)
GI50 (HCT-15): 38.1 µM
GI50 (HL-60): 21.9 µM (inactive)
GI50 (HOP-18): > 100 µM (inactive)
GI50 (HOP-62): > 100 µM (inactive)
GI50 (HOP-92): 13.1 µM (inactive)
GI50 (HT-29): 61 µM (inactive)
GI50 (K562): > 100 µM (inactive)
GI50 (KM-20L2): 49.3 µM (inactive)
GI50 (LXFL 529): > 100 µM (inactive)
GI50 (M19-MEL): 66.8 µM (inactive)
GI50 (MOLT-4): 27.9 µM (inactive)
GI50 (Malme-3M): > 100 µM (inactive)
GI50 (NCI-H226): > 100 µM (inactive)
GI50 (NCI-H23): 68.5 µM (inactive)
GI50 (NCI-H460): > 100 µM (inactive)
GI50 (OVCAR-3): > 100 µM (inactive)
GI50 (OVCAR-5): > 100 µM (inactive)
GI50 (OVCAR-8): > 100 µM (inactive)
GI50 (RPMI-8226): 56.1 µM (inactive)
GI50 (RXF 393): 73.8 µM (inactive)
GI50 (RXF 631): 67.3 µM (inactive)
GI50 (SF-268): > 100 µM (inactive)
GI50 (SF-295): > 100 µM (inactive)
GI50 (SF-539): > 100 µM (inactive)
GI50 (SK-MEL-28): > 100 µM (inactive)
GI50 (SK-MEL-2): > 100 µM (inactive)
GI50 (SN12C): > 100 µM (inactive)
GI50 (SNB-19): > 100 µM (inactive)
GI50 (SNB-78): > 100 µM (inactive)
GI50 (SR): 31.2 µM (inactive)
GI50 (SW-620): > 100 µM (inactive)
GI50 (TK-10): > 100 µM (inactive)
GI50 (U-251): 89.3 µM (inactive)
GI50 (UACC-257): > 100 µM (inactive)
GI50 (UO-31): > 100 µM (inactive)
GI50 (XF498): 26.7 µM (inactive)

— ChEMBL document CHEMBL1201862, “PubChem BioAssay data set” (2004)
